Data: US5534497A, “Technetium chelates to be used for determining the renal function” (Mallinckrodt Medical, Inc., priority 1986, dated 1996)

What was measured:
[1] = glomerular filtration about 125 ml per minute, total renal clearance 600 to 700 ml per minute; cited from earlier work
[2] = background statement; cited from earlier work
[3] = Biodistribution in mice by organ uptake measurements, relative to Tc99m-MAG3 (iodo-131-Hippuran as reference standard); format: in vivo; details: for Blood: ratio of uptake of compound to uptake of Tc99m-MAG3 / Hepatic (system): ratio of uptake of compound to uptake of Tc99m-MAG3 / Intestines: ratio of uptake of compound to uptake of Tc99m-MAG3 / Kidneys: ratio of uptake of compound to uptake of Tc99m-MAG3 / Liver: ratio of uptake of compound to uptake of Tc99m-MAG3 / Remainder / Rest of the body: ratio of uptake of compound to uptake of Tc99m-MAG3 / Renal (system): ratio of uptake of compound to uptake of Tc99m-MAG3 / Stomach: ratio of uptake of compound to uptake of Tc99m-MAG3 / Urine: ratio of uptake of compound to uptake of Tc99m-MAG3: intravenous, 10 minutes after administration, each normalised to iodo-131-Hippuran; for Secretion characteristics / organ distribution compared with Tc99m-MAG3 (in words): secretion in urine, retention in kidneys, liver, intestines
Experimental: Tc99m-MAGAG-DA, separated by HPLC, is diluted with physiological saline solution to a concentration of 370 kilobecquerel per mi. Iodo-131-Hippuran is added to this solution as a reference standard. An amount of 0.1 ml of this mixture is injected intravenously into each of the eight mice, so that 37 kilobecquerel of Tc99m-MAGAG-DA and 18.5 kilobecquerel of iodo-131-Hippuran are injected per animal. Measures are taken to collect all the excreted urine. 10 Minutes after the administration the mice are sacrificed. It is ensured that all the blood is collected. All parts of the body are brought in separate tubes and the activity of Tc99m and I131 is determined for each part of the body. From the measured results the relative quantity of both tracer products in urine, kidneys, intestines. liver, blood and the collective remainder of the body is computed. In the same manner, Tc99m-MAGA-DB, separated by HPLC, and Tc99m-mercaptoacetylglycylglycylglycine (Tc99m-MAG3), purified by HPLC, both with iodo-131-Hippuran as a reference standard, are tested in two other groups of 8 and 6 mice, respectively. For all three Tc99m-labelled compounds -- MAGAG-DA, MAGAG-DB and MAG3 -- the relative percentages of Tc99m activity in the various organs are calculated with respect to iodo-131-Hippuran. After this, the ratios of Tc99m-MAGAG-DA and -DB can be calculated with respect to Tc99m-MAG3 in the various organs.
In the same ray as described in Example III the biodistribution of the above compound in mice is determined relative to that of Tc99m-MAG3 by organ uptake measurements.
In the same way as described in Example III the biodistribution of the above compound in mice is determined relative to that of Tc99m-MAG3 by organ uptake measurements.

Compound	clearance [1]	Secretion by the kidneys (in words) [2]	Blood: ratio of uptake of compound to uptake of Tc99m-MAG3 [3]	Hepatic (system): ratio of uptake of compound to uptake of Tc99m-MAG3 [3]	Intestines: ratio of uptake of compound to uptake of Tc99m-MAG3 [3]	Kidneys: ratio of uptake of compound to uptake of Tc99m-MAG3 [3]	Liver: ratio of uptake of compound to uptake of Tc99m-MAG3 [3]	Remainder / Rest of the body: ratio of uptake of compound to uptake of Tc99m-MAG3 [3]	Renal (system): ratio of uptake of compound to uptake of Tc99m-MAG3 [3]	Stomach: ratio of uptake of compound to uptake of Tc99m-MAG3 [3]	Urine: ratio of uptake of compound to uptake of Tc99m-MAG3 [3]	Secretion characteristics / organ distribution compared with Tc99m-MAG3 (in words) [3]
O=C([O-])CN(CCN(CC(=O)[O-])CC(=O)[O-])CCN(CC(=O)[O-])CC(=O)[O-].[99Tc+4] [chelate of DTPA, Tc99m-diethylene triamine pentascetic acid]	100 ml of blood plasma per minute	–	–	–	–	–	–	–	–	–	–	–
Tc99m-mercaptoacetylglycylglycylglycine [Tc99m-MAG3]	–	secreted by the kidneys selectively and slightly faster than iodo-Hippuran	–	–	–	–	–	–	–	–	–	–
O=C([O-])CNC(=O)c1ccccc1[131I].[Na+] [iodo-131-Hippuran]	–	secreted actively tubularly	–	–	–	–	–	–	–	–	–	–
Tc99m-mercaptoacetylglycyl-D-alanylglycine [Tc99m-MAGAG-DA]	–	–	1.12	0.60	0.44	0.36	0.68	0.90	1.05	0.83	1.13	significantly better than those of Tc99m-MAG3
Tc99m-mercaptoacetylglycyl-D-alanylglycine [Tc99m-MAGAG-DB]	–	–	1.20	0.59	0.41	0.37	0.68	0.94	1.07	0.85	1.14	significantly better than those of Tc99m-MAG3
Tc99m-mercaptoacetyl-D-alanylglycylglycine [Tc99m-MAAG2-DB]	–	–	1.17	0.84	0.95	0.66	0.79	1.45	0.96	1.40	0.99	more favourable organ distribution than Tc99m-MAG3
